# Laboratory results reported in the OPERA property sets (Mansouri et al. 2018).
Compound,boiling point,melting point,log10 Koc (L/kg),ready biodegradability,log10 biodegradation half-life (days),log10 vapour pressure (mmHg),log10 Henry constant (atm·m³/mol),log10 Koa
O=C(Cl)CCCl,144 °C,–,–,–,–,–,–,–
CCCC(C)C(C)(C)CC (stereo not drawn),162 °C,–,–,–,–,–,–,–
O=C1CC(c2ccccc2)Oc2ccccc21 (stereo not drawn),–,77 °C,–,–,–,–,–,–
c1ccc(-c2ccccn2)nc1,274 °C,72 °C,1.6,–,–,–,–,–
O=C(Br)CBr,148 °C,–,–,–,–,–,–,–
O=NN(CCO)CCO,–,–,–,readily biodegradable,–,–,–,–
CC1=C2[C@H]3OC(=O)[C@@H](C)[C@@H]3[C@@H](O)C[C@@]2(C)C=CC1=O,–,203 °C,–,–,–,–,–,–
CCCC(C)C(C)C (stereo not drawn),116 °C,–,–,–,1.42,1.37,–,–
CCSC(C)C,108 °C,-122 °C,–,–,–,–,–,–
OCc1cc(Cl)cc(Cl)c1,–,80.5 °C,–,–,–,–,–,–
CCC#N,97.1 °C,-92.8 °C,–,–,–,1.68,-4.43,2.69
O=C1c2ccccc2-c2c(O)cccc21,–,250 °C,–,–,–,–,–,–
COc1ccc(C)c([N+](=O)[O-])c1,266 °C,17 °C,–,–,–,–,–,–
O=S(=O)(O)c1ccc2cc(O)ccc2c1,–,125 °C,–,–,–,–,–,–
O=C1c2ccccc2C(=O)c2c(NCCO)cccc21,–,168 °C,–,–,–,-11,–,–
CCOC(=O)CBr,168 °C,–,–,–,–,–,–,–
O=C(O)c1cnc[nH]1,294 °C,–,–,–,–,–,–,–
O=C(CS)Nc1ccc2ccccc2c1,–,112 °C,–,–,–,–,–,–
CC(=O)c1cc(Cl)ccc1Cl,–,12 °C,–,–,–,–,–,–
N#Cc1cccnc1,207 °C,51 °C,1.56,not readily biodegradable,–,-0.529,-6.56,–
Cc1ccc(C=O)o1,187 °C,–,–,–,–,–,–,–
O=C(Cl)CCCCCCCCC(=O)Cl,–,-2.5 °C,–,–,–,–,–,–

Compound,boiling point,melting point,log10 Koc (L/kg),ready biodegradability,log10 biodegradation half-life (days),log10 vapour pressure (mmHg),log10 Henry constant (atm·m³/mol),log10 Koa
Oc1ccccc1-c1ccccc1O,320 °C,109 °C,–,–,–,–,–,–
CC(C)(C)c1ccc(OC(=O)c2ccccc2O)cc1,–,62 °C,–,–,–,–,–,–
CCCCCCCCCCCCCCCCC#N,349 °C,34 °C,–,–,–,–,–,–
COc1cccc(OC)c1O,261 °C,56.5 °C,–,–,–,–,-6.64,–
CCCCCCC=CCC(=O)O,–,18 °C,–,–,–,–,–,–
O=C1OC(=O)C2CC=CCC12 (stereo not drawn),–,–,–,not readily biodegradable,–,–,–,–
Cc1c(C)n(C)c2ccccc12,283 °C,18 °C,–,–,–,–,–,–
CCCCNC(=S)NCCCC,–,64 °C,–,–,–,–,–,–
ClCc1cc(Cl)c(Cl)cc1Cl,273 °C,–,–,–,–,–,–,–
O=C(O)c1cccc(F)c1F,–,164 °C,–,–,–,–,–,–
CN(C)N=O,154 °C,–,–,not readily biodegradable,–,0.431,–,–
c1csc(-c2ccc(-c3cccs3)s2)c1,–,93.5 °C,–,–,–,–,–,–
CCCCCCCCCCCC(=O)N(CCO)CCO,–,–,–,readily biodegradable,–,–,–,–
CC(C)C(C(=O)OC(C#N)c1cccc(Oc2ccc(Br)cc2)c1)c1ccc(OC(F)F)cc1 (stereo not drawn),–,–,–,–,–,-8.92,–,–
Cc1ccnc(NS(=O)(=O)c2ccc(N)cc2)n1,–,236 °C,–,–,–,–,–,–
COc1ccc2c(c1)N(CCCN(C)C)c1ccccc1S2,–,46 °C,–,–,–,–,–,–
Cc1ccc(C[N+](=O)[O-])cc1,–,11.5 °C,–,–,–,–,–,–
Clc1ccnc2ccccc12,262 °C,34.5 °C,–,–,–,–,–,–
C[C@H]1O[C@@H](O[C@H]2[C@@H](O)C[C@H](O[C@H]3[C@@H](O)C[C@H](O[C@H]4CC[C@@]5(C)[C@H](CC[C@@H]6[C@@H]5CC[C@]5(C)[C@@H](C7=CC(=O)OC7)CC[C@]65O)C4)O[C@@H]3C)O[C@@H]2C)C[C@H](O)[C@@H]1O,–,256 °C,–,–,–,–,–,–
COC(=O)C=C(C)C,136 °C,–,–,–,–,–,–,–
COS(C)(=O)=O,203 °C,20 °C,–,–,–,–,–,–
CCCCCC(=O)OC,150 °C,-71 °C,–,–,–,0.57,-3.44,–

Compound,boiling point,melting point,log10 Koc (L/kg),ready biodegradability,log10 biodegradation half-life (days),log10 vapour pressure (mmHg),log10 Henry constant (atm·m³/mol),log10 Koa
CCCCCCCCCCCCCCCCCC(=O)N(CCO)CCO,–,–,–,readily biodegradable,–,–,–,–
C=CC(=O)Oc1c(Br)cc(Cl)c2cccnc12,–,100 °C,–,–,–,–,–,–
C[C@@H]1O[C@@H]1P(=O)(O)O,–,94 °C,–,–,–,–,–,–
CC(C)[C@H](C)CC[C@@H](C)[C@H]1CC[C@H]2[C@@H]3CC=C4C[C@@H](O)CC[C@]4(C)[C@H]3CC[C@]12C,–,158 °C,–,–,–,–,–,–
O=P(OC(Cl)CCCl)(OC(Cl)CCCl)OC(Cl)CCCl (stereo not drawn),–,26.7 °C,–,–,–,–,–,–
CCNc1cccc(C)c1,221 °C,–,–,–,–,–,–,–
O=C(O)Cc1sc(-c2ccccc2)nc1-c1ccc(Cl)cc1,–,162 °C,–,–,–,–,–,–
O=C(O)c1ccc2ccccc2c1O,–,195 °C,–,–,–,–,–,–
N#Cc1c(Cl)c(Cl)c(Cl)c(C#N)c1Cl,350 °C,250 °C,3.26,readily biodegradable,–,-6.24,-5.7,–
CSCCC=O,166 °C,–,–,–,–,–,–,–
COc1ccc(CN(CCN(C)C)c2ncccn2)cc1.Cl,–,174 °C,–,–,–,–,–,–
N#CSc1ccccc1,232 °C,–,–,–,–,–,–,–
Clc1ccc2ccccc2c1Cl,296 °C,36 °C,–,–,–,-2.7,–,6.89
CC1(C)O[C@@H]2C[C@H]3[C@@H]4CCC5=CC(=O)C=C[C@]5(C)[C@@]4(F)[C@@H](O)C[C@]3(C)[C@]2(C(=O)CO)O1,–,293 °C,–,–,–,–,–,–
O=Cc1ccc(CO)o1,–,31.5 °C,–,–,–,–,–,–
CCCCCCCCCCCC(=O)CCCCCCCCCCC,–,70.2 °C,–,–,–,–,–,–
CCCCCCOCCO,208 °C,-45.1 °C,–,–,–,-0.81,–,–
N#Cc1ccccc1N,263 °C,51 °C,–,–,–,–,–,–
CC(=O)CC(=O)Nc1ccc(C)cc1,–,–,–,readily biodegradable,–,–,–,–
c1ccc2c(c1)ccc1nc3c(ccc4ccccc43)cc12,–,226 °C,–,–,–,–,–,–
